Laboratory results taken from patent publication US5488049A, “Method of treating learning and memory disorders using benzothiadiazide derivatives as nootropic agents” (FIDIA - Georgetown Institute for the Neuro-Sciences, priority 1993, dated 1996).
Entries after “also recorded” stand apart in the source; their conditions may differ.

Columns and labels:
rats [1] = experiment: Water maze: drug action on alprazolam-disrupted learning behavior in rats; assay type: in vivo, rat
Method: Rats (male 250 g b.w.) were trained two days, once a day, in maze A (See insert A). […] Rats were exposed to a new maze configuration (Maze B) in 4 successive trials 15, 30, 45, and 60 min after the i.p. injections.
The water maze apparatus was adapted from Kant et al., (16), and consists of three concentric squares placed inside a 5 ft plastic pool (FIG. 6). The walls of the maze are 50 cm in height and are constructed from black opaque plastic to allow for tracking of the animal with an overhead camera. The alleys between the walls are 16 cm wide. In the center of each wall there is a removable doorway. The opening of doorways allows for the construction of mazes with an increasing number of potential error possibilities. (See diagram for Maze A and Maze B, FIG. 6). The maze is located in a room 10'×15' at constant temperature (18° C.) adjacent to the vivarium. The room is illuminated with overhead lights which also serve as spatial cues. Additional spatial cues are provided by the position of the investigator and a number of small white x's placed within specific locations upon the walls of the maze. The maze is filled with water (18°)C. to a depth of 25 cm.
Seven days prior to drug studies, rats were tested in Maze A (forced maze) on two consecutive days. Pretesting with the "forced" maze enabled the assessment of the animals' general motor, sensory and motivational abilities, and facilitated the exclusion of those animals unable to meet pretesting criteria. Performance was assessed by determining either swim time, errors committed, or path length measured with a computerized recording device. Errors are defined as whole body entry into alleys not leading directly to the exit platform (i.e., shaded portions in FIG. 6). Rats were excluded from the study if their swim path length and/or number of errors were two standard deviations above the mean […] of the entire group. During the first two trials, the rats were placed into the center of the maze and given a maximum of 180 secs to find the "exit platform" located at the "finish" (FIG. 6). The time required, the number of errors, and the path length were recorded for each trial. […] Rats meeting the criteria were randomly divided into groups. On the day of the experiment, a single trial was run (Maze A) in order to establish a baseline of performance. Following drug administration, the rats were again tested once on Maze A to establish a baseline of post-treatment performance. Following an additional interatrial interval of 30 min., the rats were tested on Maze B.
In these experiments, rats were trained in Maze B 15, 30, 45 and 60 min. after drug injection.

GABAA receptors = experiment: Preliminary electrophysiological and biochemical radiolabeled binding studies on GABAA receptors
Pacata monkeys = experiment: Preliminary experiments in Pacata monkeys: working memory; assay type: in vivo
Description: The present IDRAcompounds are useful for enhancing both short-term memory, long-term memory, and cognitive performance in man. […]. As a result, the compounds of the present invention are useful as therapeutic agents in memory impairment, e.g., due to toxicant exposure, brain injury, epilepsy, mental retardation in children and senile dementia, including Alzheimer's disease.

rats [2] = experiment: Water maze: drug action on alprazolam-disrupted learning behavior in rats; assay type: in vivo, rat; conditions: oral 5 mg/kg
Gross animal behavior = conditions: at effective doses
[3] = Entry into the brain (inferred from in vivo activity); conditions: inferred ("presumably") from in vivo activity or lack of it
AMPA receptor = experiment: Fast application with double barrel pipette: AMPA receptor desensitization in outside-out patches from CAl hippocampal pyramidal neurons; assay type: cell-based, rat; conditions: comparison compound, lower dose than IDRA 21, concentration not given
Method: (§1) Young rats (12-16 days old) were decapitated and the brains quickly removed and placed in ice-cold Ringer solution. Thin slices of hippocampus (250 μm) were then cut with a vibratome slicer (Lancer, St. Louis, Mo.) and kept in Ringer solution at 37° C. until use. The experiments were carried out at room temperature with the slice totally submerged in a 1 ml volume recording chamber and under continuous perfusion with Ringer solution at a rate of 6 ml/min using an upright Hoffman modulation contrast microscope (Carl Zeiss, Germany) equipped with a 40×water immersion objective.
(§2) Media and drug application. The external Ringer solution contained (in mM): NaCl 120; KCl 3.1; CaCl2 2; MgCl2 1; KH2 PO4 1; NaHCO3 26; glucose 2.7; and it was continuously bubbled with 95% O2 and 5% CO2. Patch pipettes were filled with a solution containing (in mM): K-gluconate 140; MgCl2 1; ATP.Mg 2; EGTA 0.5; HEPES-KOH 10, pH 7.2. All the drugs under investigation were applied through the recording chamber perfusion system via parallel inputs having a common entry into the chamber. Agonist application was attained using two different systems that allowed a slow or a rapid solution change. Slow solution changes were used during recordings in whole-cell configuration and were obtained by exchanging the solution of the recording chamber within a few seconds. Fast solution changes were obtained with the use of the Y-shaped tubing method that allows complete exchange of solution in less than 10 ms, and is described in detail by Murase et al. (1989).
Briefly, a polyethylene tubing (1 mm i.d.) is bent in a U-shaped, and another fine polyethylene tubing (50 μi.d.) and 10 mm length) is inserted into a small hole in the U-tubing making the tip of the Y-tubing. Solutions are fed to the Y-tubing by gravity, and negative pressure facilitates exchange of the solution. The tip of the Y-tubing is positioned 100 μm from the cell investigated, and upon opening and closing of a valve that controls the negative pressure, it was possible to respectively change rapidly and apply a number of different test solutions. This method was used to apply agonists to excised outside-out membrane patches. More rapid drug applications were used to apply agonists to excised outside-out membrane patches, and were obtained through a double-barrelled pipette positioned close to the recording pipette containing the membrane patch. […] The agonist was applied for a period of 150 ms and the time necessary for a complete exchange of the solution was less than 1 ms as measured at the opening of a patch pipette containing different dilutions of the drugs under study. […]
Ionic currents in whole-cell configuration and outside-out excised membrane patches were monitored using the patch clamp technique (15). […]

[4] = tested on: kainate-activated current; experiment: Selectivity: ionic current elicited by 20 μM kainate; assay type: cell-based, rat
Method: as §1, §2
(§3) Ionic currents in whole-cell configuration and outside-out excised membrane patches were monitored using the patch clamp technique (15).

[5] = tested on: EPSCs elicited in CAl pyramidal neurons; experiment: Excitatory postsynaptic currents (EPSCs) in CAl pyramidal neurons in hippocampal slices on stimulation of Schaffer collateral afferents; assay type: cell-based, rat; conditions: in vitro; compared with (+) IDRA 21
Method: as §1, §3
Traces were filtered at 3 KHz (-3 dB, 8-pole, lowpass Bessel filter, Frequency Devices), and stored in an LSI 11/73 computer (INDEC System, Sunnyvale, Calif.) after digitization (10 KHz) with a Data Translation analog to digital converter. Decay time constants of EPSC and glutamate-activated currents were determined from exponential fitting with the 11/73 system by using an entirely automated least-squares procedures (see Vicini and Schuetze, 1985, for further details). This method uses a Simplex algorithm (Caceci and Cacheris, 1984) to fit the data to either a single or double exponential equation of the form I(t)=If exp(-t/tauf)+Is exp(-t/taus), where If and Is are the amplitudes of the sIPSC fast and slow components, and tauf and taus are their respective decay time constants. Peak amplitudes were measured at the absolute maximum of the currents, taking into account the noise of the baseline and noise around the peak. Rise times were measured as the time elapsed from 20 to 80% of the peak amplitude of the response.
The action of nootropic drugs on the excitatory postsynaptic currents (EPSCs) elicited in CAl pyramidal neurons in hippocampal slices was investigated by stimulation of the Schaffer collateral afferents.

Compound | disruptive action of alprazolam (rats [1]; discussion statement) | dose dependence of learning and memory enhancing effect (rats [1]; rat, in vivo) | duration of learning and memory enhancing effect (rats [1]; rat, in vivo) [h] | biological activity of enantiomers (summary) (rats [1]; summary statement) | direct action on GABAA receptors (GABAA receptors) | working memory enhancement (Pacata monkeys) | potency vs racemate in preventing alprazolam-induced amnesia (rats [2]) | prevention of alprazolam-induced amnesia (enantiomers) (rats [2]) | effect on gross animal behavior (exploratory behavior, stereotypy, ataxia, posture) (Gross animal behavior) | brain uptake [3] | removal of glutamate-induced desensitization (AMPA receptor) | effect on kainate-activated current ([4]; 40 μM compound, 20 μM kainate) | effect on kainate responses at doses that decreased AMPA desensitization ([4]; all doses that decrease/inhibit AMPA desensitization) | efficacy in increasing excitatory synaptic strength in CAl pyramidal neurons [5] | antagonism of alprazolam amnesic effect (rats [1]; doses equimolar to IDRA 21 / (+) IDRA 21)
CC1Nc2ccc(Cl)cc2S(=O)(=O)N1 (single isomer, unassigned; (+)) [(+) IDRA 21] | antagonizes the disruptive action of alprazolam | dose-dependent | > 1 | biologically active | fails to act directly on GABAA receptors | very potent in enhancing working memory | significantly more potent than (±) IDRA; also recorded: more potent that (±) IDRA 21 | active in preventing alprazolam-induced amnesia in rats | no changes in exploratory behavior, stereotypy, ataxia, posture, etc. | taken up by the brain in a sufficient quantity to produce learning and memory enhancing effects |  |  |  |  | 
NS(=O)(=O)c1cc2c(cc1Cl)NC(C1CC3C=CC1C3)NS2(=O)=O (stereo not shown) [cyclothiazide, reference compound] |  |  |  |  |  |  |  |  |  | fail to enter the brain | completely removed the desensitization induced by glutamate | increased the current | potently potentiated kainate responses | at least as efficacious as (+) IDRA 21 | unable to antagonize alprazolam-induced impairment of learning behavior
